System: Crotalus atrox venom-enhanced tissue-type plasminogen activator initiated fibrinolysis
Assay: Thrombelastography of human plasma pretreated with iron and/or CO before venom exposure in the presence of tPA (Example II)
Assay type: biochemical
Settings: 100 IU/ml tPA, vs matched samples without or with venom exposure (0.5 μg/ml)
Method: Two hundred mg of lyophilized, pooled venom was obtained from four western diamondback rattlesnakes (Crotalus atrox) for experimentation. Venom was reconstituted in calcium-free phosphate buffered saline (PBS, Sigma-Aldrich, Saint Louis, Mo., USA) at a concentration of 20 mg/ml, aliquoted, and then stored at −80° C. until experimentation at the University of Arizona.
Pooled normal plasma (George King Bio-Medical, Overland Park, Kans., USA) anticoagulated with sodium citrate was rapidly thawed at 37° C. and used for experimentation. To assess the effects of pretreatment of antifibrinolytic plasma proteins with iron, CO, or both, 1% additions of PBS, ferric chloride (FeCl3, 99.9% pure, Sigma-Aldrich, Saint Louis, Mo., USA) in PBS, or CORM-2 (tricarbonyldichlororuthenium (II) dimer, a CO releasing molecule, Sigma-Aldrich, Saint Louis, Mo., USA) dissolved in dimethyl sulfoxide (DMSO, Sigma-Aldrich, Saint Louis, Mo., USA) were used. […] Plasma was exposed to these various agents for at least 5 min prior to incubations with venom.
The final volume for all subsequently described plasma sample mixtures was 359.4 μl. Sample composition consisted of […] of plasma; 10 μl of tissue factor reagent (0.1% final concentration in distilled water; Diagnostica Stago S.A.S., Asnieres sur Seine, France), 10 μl of tissue type plasminogen activator (tPA, 580 IU/μg, Genentech, Inc., San Francisco, Calif., USA; 100 IU/ml final concentration) and 3.4 μl of PBS or venom (final concentration 0.5-2.0 μg/ml). […] The aforementioned plasma and venom mixtures were placed in a disposable cup in a computer-controlled Thrombelastograph® hemostasis system (Model 5000, Haemoscope Corp., Niles, Ill., USA) and incubated for 5 min at 37° C., with addition of 20 μl of 200 mM CaCl2) as the last step to initiate clotting. Data were collected at 37° C. until clot lysis time (CLT) was observed. The following elastic modulus-based parameters previously described (see, Nielsen V G, Pretorius E. Blood Coagul Fibrinolysis 2014; 25:695-702) were determined: time to maximum rate of thrombus generation (TMRTG): this is the time interval (min) observed prior to maximum speed of clot growth; maximum rate of thrombus generation (MRTG): this is the maximum velocity of clot growth observed (dynes/cm^2/sec); total thrombus generation (TTG, dynes/cm^2), the final viscoelastic resistance observed after clot formation; time to maximum rate of lysis (TMRL, min), maximum rate of lysis (MRL, dynes/cm^2/sec) and CLT (min). Lastly, to assess if venom had thrombolytic properties that were tPA independent, n=4 replicates were performed wherein no tPA was added and data were collected for 3 h.
Data are presented as mean±SD. All conditions unless otherwise indicated were represented by n=8 replicates. This number of replicates reliably provides a statistical power>0.8 for P<0.05 (see, Nielsen V G, Pretorius E. Blood Coagul Fibrinolysis 2014; 25:695-702). A commercially available statistical program was used for two-way analysis of variance (ANOVA) to assess interactions of venom and tPA on coagulation kinetics and interactions of iron and CO on venom-enhanced fibrinolysis (SigmaStat 3.1, Systat Software, Inc., San Jose, Calif., USA). Additional one-way ANOVA followed by Holm-Sidak post hoc analyses were performed to assess differences between the conditions. Graphics depicting viscoelastic data were generated with a commercially available program (OrigenPro 7.5, OrigenLab Corporation, Northampton, Mass., USA).

[1] = 10 μM ferric chloride or 100 μM CORM-2

[Cl][Fe]([Cl])[Cl] [iron, ferric chloride]
clot lysis time (CLT) [1]: significantly greater | maximum rate of thrombus generation (MRTG) [1]: greater | time to maximum rate of lysis (TMRL) [1]: significantly greater | total thrombus generation (TTG) [1]: greater | maximum rate of lysis (MRL) (10 μM ferric chloride): significantly greater | time to maximum rate of thrombus generation (TMRTG) (10 μM ferric chloride): significantly lesser

— US10828326B2, “Compositions and methods for treating and preventing venom related poisoning” (priority 2015, dated 2020)
